Measured values published in PubChem BioAssay (NCI).
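Following 48 hours of exposure in 96-well plates, responses at five concentrations were used to interpolate endpoints linearly. At the TGI there is no net growth.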

Assays:
Assay in all cases: NCI-60 cell line screen, 48 h
NCI-H23 lung = tested on: NCI-H23 lung
COLO 205 colon = tested on: COLO 205 colon
HCC-2998 colon = tested on: HCC-2998 colon
SF-295 CNS = tested on: SF-295 CNS
MOLT-4 leukemia = tested on: MOLT-4 leukemia
OVCAR-8 ovarian = tested on: OVCAR-8 ovarian
A549 NSCLC = tested on: A549 NSCLC
DMS 114 small cell lung = tested on: DMS 114 small cell lung
SNB-19 CNS = tested on: SNB-19 CNS
HCT-15 colon = tested on: HCT-15 colon
UACC-257 melanoma = tested on: UACC-257 melanoma
SN12C renal = tested on: SN12C renal
DMS 273 small cell lung = tested on: DMS 273 small cell lung
OVCAR-3 ovarian = tested on: OVCAR-3 ovarian
U251 CNS = tested on: U251 CNS
OVCAR-4 ovarian = tested on: OVCAR-4 ovarian
NCI-H226 lung = tested on: NCI-H226 lung
SF-268 CNS = tested on: SF-268 CNS
TK-10 renal = tested on: TK-10 renal
NCI-H460 lung = tested on: NCI-H460 lung
SW-620 colon = tested on: SW-620 colon
KM20L2 colon = tested on: KM20L2 colon
OVCAR-5 ovarian = tested on: OVCAR-5 ovarian
HCT-116 colon = tested on: HCT-116 colon
DLD-1 colon = tested on: DLD-1 colon
IGROV1 ovarian = tested on: IGROV1 ovarian
EKVX NSCLC = tested on: EKVX NSCLC
SF-539 CNS = tested on: SF-539 CNS
HOP-92 NSCLC = tested on: HOP-92 NSCLC
SNB-75 CNS = tested on: SNB-75 CNS
UO-31 renal = tested on: UO-31 renal
HT29 colon = tested on: HT29 colon
SK-MEL-2 melanoma = tested on: SK-MEL-2 melanoma
SK-OV-3 ovarian = tested on: SK-OV-3 ovarian
LOX IMVI melanoma = tested on: LOX IMVI melanoma
KM12 colon = tested on: KM12 colon
CAKI-1 renal = tested on: CAKI-1 renal
UACC-62 melanoma = tested on: UACC-62 melanoma
K-562 leukemia = tested on: K-562 leukemia
SK-MEL-28 melanoma = tested on: SK-MEL-28 melanoma
SK-MEL-5 melanoma = tested on: SK-MEL-5 melanoma
SNB-78 CNS = tested on: SNB-78 CNS
XF 498 CNS = tested on: XF 498 CNS
M14 melanoma = tested on: M14 melanoma
ACHN renal = tested on: ACHN renal
MALME-3M melanoma = tested on: MALME-3M melanoma
A498 renal = tested on: A498 renal
LXFL 529 NSCLC = tested on: LXFL 529 NSCLC
786-0 renal = tested on: 786-0 renal
CCRF-CEM leukemia = tested on: CCRF-CEM leukemia
RPMI-8226 leukemia = tested on: RPMI-8226 leukemia
RXF 393 renal = tested on: RXF 393 renal
HOP-62 NSCLC = tested on: HOP-62 NSCLC
NCI-H522 lung = tested on: NCI-H522 lung
M19-MEL melanoma = tested on: M19-MEL melanoma

Q: Which TGI (NCI-H23 lung) does the source give for CC(C)OP(=S)(NC(=S)c1ccccc1)OC(C)C here?
A: > 100 µM

Q: What about the TGI (COLO 205 colon) of the same compound?
A: > 100 µM

Q: What about the TGI (HCC-2998 colon) of the same compound?
A: > 100 µM

Q: What about the TGI (SF-295 CNS) of the same compound?
A: > 100 µM

Q: And the TGI (MOLT-4 leukemia)?
A: > 100 µM

Q: And the TGI (OVCAR-8 ovarian)?
A: > 100 µM

Q: What about the TGI (A549 NSCLC) of the same compound?
A: > 100 µM

Q: And the TGI (DMS 114 small cell lung)?
A: > 100 µM

Q: What about the TGI (SNB-19 CNS) of the same compound?
A: > 100 µM

Q: What about the TGI (HCT-15 colon) of the same compound?
A: > 100 µM

Q: What about the TGI (UACC-257 melanoma) of the same compound?
A: > 100 µM

Q: And the TGI (SN12C renal)?
A: > 100 µM

Q: What about the TGI (DMS 273 small cell lung) of the same compound?
A: > 100 µM

Q: And the TGI (OVCAR-3 ovarian)?
A: > 100 µM

Q: What about the TGI (U251 CNS) of the same compound?
A: > 100 µM

Q: And the TGI (OVCAR-4 ovarian)?
A: > 100 µM

Q: What about the TGI (NCI-H226 lung) of the same compound?
A: > 100 µM

Q: What about the TGI (SF-268 CNS) of the same compound?
A: > 100 µM

Q: And the TGI (TK-10 renal)?
A: > 100 µM

Q: And the TGI (NCI-H460 lung)?
A: > 100 µM

Q: What about the TGI (SW-620 colon) of the same compound?
A: > 100 µM

Q: What about the TGI (KM20L2 colon) of the same compound?
A: > 100 µM

Q: What about the TGI (OVCAR-5 ovarian) of the same compound?
A: > 100 µM

Q: What about the TGI (HCT-116 colon) of the same compound?
A: > 100 µM

Q: And the TGI (DLD-1 colon)?
A: > 100 µM

Q: And the TGI (IGROV1 ovarian)?
A: > 100 µM

Q: And the TGI (EKVX NSCLC)?
A: > 100 µM

Q: What about the TGI (SF-539 CNS) of the same compound?
A: > 100 µM

Q: And the TGI (HOP-92 NSCLC)?
A: > 100 µM

Q: And the TGI (SNB-75 CNS)?
A: > 100 µM

Q: And the TGI (UO-31 renal)?
A: > 100 µM

Q: And the TGI (HT29 colon)?
A: > 100 µM

Q: And the TGI (SK-MEL-2 melanoma)?
A: > 100 µM

Q: And the TGI (SK-OV-3 ovarian)?
A: > 100 µM

Q: What about the TGI (LOX IMVI melanoma) of the same compound?
A: > 100 µM

Q: What about the TGI (KM12 colon) of the same compound?
A: > 100 µM

Q: And the TGI (CAKI-1 renal)?
A: > 100 µM

Q: And the TGI (UACC-62 melanoma)?
A: > 100 µM

Q: And the TGI (K-562 leukemia)?
A: > 100 µM

Q: What about the TGI (SK-MEL-28 melanoma) of the same compound?
A: > 100 µM

Q: And the TGI (SK-MEL-5 melanoma)?
A: > 100 µM

Q: What about the TGI (SNB-78 CNS) of the same compound?
A: > 100 µM

Q: And the TGI (XF 498 CNS)?
A: > 100 µM

Q: What about the TGI (M14 melanoma) of the same compound?
A: > 100 µM

Q: And the TGI (ACHN renal)?
A: > 100 µM

Q: And the TGI (MALME-3M melanoma)?
A: > 100 µM

Q: What about the TGI (A498 renal) of the same compound?
A: > 100 µM

Q: And the TGI (LXFL 529 NSCLC)?
A: > 100 µM

Q: And the TGI (786-0 renal)?
A: > 100 µM

Q: What about the TGI (CCRF-CEM leukemia) of the same compound?
A: > 100 µM

Q: CC1=NN(C(=O)Cc2ccccc2)C(=O)/C1=C\c1ccc([N+](=O)[O-])cc1 was tested. Which TGI (NCI-H23 lung) did it give?
A: > 100 µM

Q: What about the TGI (COLO 205 colon) of the same compound?
A: > 100 µM

Q: And the TGI (HCC-2998 colon)?
A: > 100 µM

Q: And the TGI (SF-295 CNS)?
A: > 100 µM

Q: What about the TGI (MOLT-4 leukemia) of the same compound?
A: > 100 µM

Q: What about the TGI (OVCAR-8 ovarian) of the same compound?
A: > 100 µM

Q: What about the TGI (A549 NSCLC) of the same compound?
A: > 100 µM

Q: What about the TGI (DMS 114 small cell lung) of the same compound?
A: > 100 µM

Q: What about the TGI (SNB-19 CNS) of the same compound?
A: > 100 µM

Q: And the TGI (HCT-15 colon)?
A: > 100 µM

Q: What about the TGI (UACC-257 melanoma) of the same compound?
A: > 100 µM

Q: What about the TGI (SN12C renal) of the same compound?
A: > 100 µM

Q: What about the TGI (RPMI-8226 leukemia) of the same compound?
A: > 100 µM

Q: And the TGI (OVCAR-3 ovarian)?
A: > 100 µM

Q: What about the TGI (U251 CNS) of the same compound?
A: > 100 µM

Q: And the TGI (OVCAR-4 ovarian)?
A: > 100 µM

Q: And the TGI (NCI-H226 lung)?
A: > 100 µM

Q: What about the TGI (SF-268 CNS) of the same compound?
A: > 100 µM

Q: And the TGI (TK-10 renal)?
A: > 100 µM

Q: What about the TGI (NCI-H460 lung) of the same compound?
A: > 100 µM

Q: What about the TGI (SW-620 colon) of the same compound?
A: > 100 µM

Q: What about the TGI (KM20L2 colon) of the same compound?
A: > 100 µM

Q: And the TGI (OVCAR-5 ovarian)?
A: > 100 µM

Q: And the TGI (RXF 393 renal)?
A: > 100 µM

Q: And the TGI (HCT-116 colon)?
A: > 100 µM

Q: And the TGI (DLD-1 colon)?
A: > 100 µM

Q: What about the TGI (IGROV1 ovarian) of the same compound?
A: > 100 µM

Q: What about the TGI (EKVX NSCLC) of the same compound?
A: > 100 µM

Q: What about the TGI (SF-539 CNS) of the same compound?
A: > 100 µM

Q: What about the TGI (HOP-92 NSCLC) of the same compound?
A: 9.82 µM

Q: And the TGI (UO-31 renal)?
A: > 100 µM

Q: And the TGI (HT29 colon)?
A: > 100 µM

Q: And the TGI (HOP-62 NSCLC)?
A: > 100 µM

Q: What about the TGI (SK-MEL-2 melanoma) of the same compound?
A: > 100 µM

Q: And the TGI (NCI-H522 lung)?
A: > 100 µM

Q: What about the TGI (SK-OV-3 ovarian) of the same compound?
A: > 100 µM

Q: And the TGI (LOX IMVI melanoma)?
A: > 100 µM

Q: And the TGI (KM12 colon)?
A: > 100 µM

Q: And the TGI (CAKI-1 renal)?
A: > 100 µM

Q: And the TGI (M19-MEL melanoma)?
A: > 100 µM

Q: What about the TGI (UACC-62 melanoma) of the same compound?
A: > 100 µM

Q: And the TGI (K-562 leukemia)?
A: > 100 µM

Q: What about the TGI (SK-MEL-28 melanoma) of the same compound?
A: > 100 µM

Q: What about the TGI (SK-MEL-5 melanoma) of the same compound?
A: > 100 µM

Q: And the TGI (SNB-78 CNS)?
A: > 100 µM

Q: And the TGI (XF 498 CNS)?
A: > 100 µM

Q: What about the TGI (M14 melanoma) of the same compound?
A: > 100 µM

Q: What about the TGI (ACHN renal) of the same compound?
A: > 100 µM

Q: And the TGI (MALME-3M melanoma)?
A: > 100 µM

Q: And the TGI (A498 renal)?
A: > 100 µM

Q: What about the TGI (LXFL 529 NSCLC) of the same compound?
A: > 100 µM

Q: And the TGI (786-0 renal)?
A: > 100 µM

Q: What about the TGI (CCRF-CEM leukemia) of the same compound?
A: > 100 µM
